# Measured values reported in patent publication US20230365626A1, “Alloferon Peptide and Method Using the Same” (Industry Academy Cooperation Foundation of Sejong University, priority 2020, published 2023).
# Square brackets hold non-standard residues; d marks the D form. Ends that are not written are not given here. Peptide text beside a SMILES is read from it.
# Tests used:
# cortical nerve cells [1] = test: Mechanism of action: receptor-mediated endocytosis, p62/LC3 western blot with Baf-A1; assay type: cell-based, ICR mouse; conditions: inhibitor administered alone (500 μM MβCD or 2 μM CP) with Baf-A1 + 20 μM peptide (FIG. 9B)
# Experimental: (§1) In the pre-preparation process, 10-12 days after cell culture, the culture medium of the cerebral cortex nerve cells was changed to a minimum essential medium (MEM, Gibco, USA) without adding serum, and then was treated with N,N,N′,N′-tetrakis(2-pyridylmethyl)ethylene-diamine (TPEN, 2 μM, Sigma, USA), which is a zinc chelator, 50 μM chloroquine (CQ), 100 nM bafilomycin A-1 (Baf-A1), 500 μM methyl-beta-cyclodextrin (MβCD), and 2 μM chloropromazine (CP). Here, the MβCD is a caveolin-mediated endocytosis inhibitor, and CP is a clathrin-mediated endocytosis inhibitor. In addition, in the cell line experiments, the medium was changed to MEM according to the purpose of the experiments and was then treated with 40 μM chloroquine (CQ) and 100 nM bafilomycin A-1 (Baf-A1). During the pre-preparation process, the medium was treated with alloferon D-form peptides (0.2, 2, or 20 μM), free zinc (25 μM), TPEN (1 μM), and the like separately or together according to the purpose of each experiment.
# Since the protein cannot pass through the cell membrane, the present inventors thought that the alloferon D-form peptides would be introduced through an endocytosis process. Thus, the present inventors investigated whether the alloferon D-form peptides act through a receptor-mediated endocytosis process. […]
# TNF-α = conditions: 0.5, 2, 8, and 16 mg/kg intraperitoneally, after 1 hour
# Experimental: (§3) Specifically, the alloferon D-form peptides were intraperitoneally injected at 0.5, 2, 8, and 16 mg/kg, and after 1 hour, blood was collected from the retro-orbital plexus of the mice. The collected blood was centrifuged at 2,000 g at 4° C. for 20 minutes using a centrifuge, and then only the supernatant was taken to obtain plasma. Thereafter, an experiment was performed using TNF-α and IL-6 Elisa kit (RayBiotech, USA). Specifically, 100 μL of plasma sample was put into a 96-well microplate coated with each of anti-TNF-α and anti-IL-6 antibodies, and then left while shaking at room temperature for 2 hours and 30 minutes. Thereafter, the sample was discarded, washed 4 times with a wash buffer provided from the kit, and then 100 μL of the biotin-binding secondary antibodies was reacted for 1 hour. Then, it was washed 4 times with a washing buffer, 100 μL of streptavidin solution was added thereto, left while shaking at room temperature for 45 minutes, and washed again 4 times with a washing buffer. After 100 μL of TMB One-step substrate was added thereto and left for 30 minutes, 50 μL of a reaction termination solution was added thereto, and then 450 nm absorbance was measured by a spectrophotometer.
# [2] = Body weight change during intraperitoneal administration; assay type: in vivo, mice; conditions: 16 mg/kg intraperitoneal, 14 weeks (FIG. 10C)
# IL-6 = test: Plasma cytokine ELISA after intraperitoneal injection; assay type: in vivo, mice; conditions: 0.5, 2, 8, and 16 mg/kg intraperitoneally, after 1 hour
# Experimental: as §3
# H4 cell line (GL-H4) = test: LC3-GFP puncta, autophagic flux blocked by chloroquine (fluorescence microscopy); assay type: cell-based; conditions: 50 μM CQ alone
# Experimental: In addition, in this study, H4 cell line (GL-H4) and 293T cell line in which the GFP-LC3 plasmid was permanently infected were used. As a cell culture medium, 10% fetal bovine serum (Hyclone, USA) and a mixture solution of antibiotics and antifungal agents ([…], South Korea) were added to Minimum Essential Medium ([…]) and incubated in a cell incubator in which the conditions of 37° C. and 5% CO2 were maintained. […] Here, the MβCD is a caveolin-mediated endocytosis inhibitor, and CP is a clathrin-mediated endocytosis inhibitor. In addition, in the cell line experiments, the medium was changed to MEM according to the purpose of the experiments and was then treated with 40 μM chloroquine (CQ) and 100 nM bafilomycin A-1 (Baf-A1). During the pre-preparation process, the medium was treated with alloferon D-form peptides (0.2, 2, or 20 μM), free zinc (25 μM), TPEN (1 μM), and the like separately or together according to the purpose of each experiment. […] Protein quantification was performed using BCA protein assay kit (Pierce Biotechnology, USA). Then, 5× sample buffer (300 mM Tris, pH 6.8, 10% SDS, 50% glycerol, 0.1% BPB, 2.5% mercaptoethanol, and 100 mM DTT) was mixed with a quantified sample and denatured at 95° C. for 5 minutes to prepare the sample. […]
# cortical nerve cells [3] = test: Lysotracker staining (lysosomal pH); assay type: cell-based, ICR mouse
# Description: The cerebral cortex nerve cells of the mice were obtained by extracting the cerebrum from ICR mouse embryos of 13-14 day gestation. 6-7 hemispheres per culture dish were inoculated on 24-well culture dishes or 6-well culture dishes (SPL Life Science, South Korea) coated with 0.01% poly-D-lysine (Sigma, USA) prepared in advance. […]
# Since it was confirmed through FIG. 2 that alloferon may promote the autophagic flux, whether the alloferon D-form peptides are involved in pH change in the lysosome was confirmed through lysotracker staining. […] It means that the stronger the fluorescence intensity, the lower the pH, and the weaker the fluorescence intensity, the higher the pH. It was confirmed that the pH in the lysosome was lowered by only the treatment with the alloferon D-form peptides compared to the control (FIG. 3A), and when treatment with 50 μM CQ was performed, the fluorescence intensity decreased compared to the control, and this was recovered by the treatment with the alloferon D-form peptides and zinc (FIG. 3B). […]
# [4] = In vitro plasma stability analysis (LC / mass spectrometry)
# Experimental: In vitro plasma stability analysis was performed in order to compare the stability of L-form peptides and D-form peptides of the alloferon in the plasma of mice. […] The 10 μM alloferon L-form and D-form peptides were put into 100 μL of plasma, respectively, and then allowed to stand at 37° C. for 0, 5, 10, 30, 60, and 90 minutes. Thereafter, 500 μL of cold methanol was added thereto to precipitate proteins, and the proteins were lyophilized, followed by liquid chromatography and protein mass spectrometry.
# [5] = system: β-amyloid aggregates (Aβ aggregates); test: β-amyloid 1-42 protein aggregates in transfected 293T cells; assay type: cell-based
# Experimental: (§2) In addition, in this study, H4 cell line (GL-H4) and 293T cell line in which the GFP-LC3 plasmid was permanently infected were used. As a cell culture medium, 10% fetal bovine serum (Hyclone, USA) and a mixture solution of antibiotics and antifungal agents (WellGene, South Korea) were added to Minimum Essential Medium (MEM, WellGene) and incubated in a cell incubator in which the conditions of 37° C. and 5% CO2 were maintained.
# as §1
# Subsequently, the present inventors investigated whether alloferon may dissolve the β-amyloid aggregates (Aβ aggregates) generated after the transient transfection of β-amyloid 1-42 (Aβ1-42) into 293T cell lines. To this end, EGFP-tagged 1-42Aβ (pEGFP-C1-Abeta 1-42) DNA was transiently transfected into 293T cell lines using Lipofectamine2000. For cell observation, GFP signals were analyzed through a fluorescence microscope, and ImageJ was used for size and number analysis of GFP-positive aggregates. pEGFP-C1-Abeta 1-42 DNA was purchased from Addgene. Western blot analysis was performed in the same manner as in Example 5, except that anti-6E10-antibodies (Biolegend, USA) were used as the antibodies (FIG. 7).
# [6] = system: Huntington protein aggregates (Htt aggregates); test: Mutant Huntington protein aggregates in transfected 293T cells; assay type: cell-based
# Experimental: as §2, §1
# Subsequently, the present inventors investigated whether alloferon may dissolve Huntington protein aggregates (Htt aggregates) generated after the transient transfection of mutant Huntington protein (mt-Htt) into 293T cell lines. To this end, GFP-tagged Huntington Q74 (GFP-mHttQ74) DNA was transiently transfected into 293T cell lines using Lipofectamine2000. For cell observation, GFP signals were analyzed through a fluorescence microscope, and ImageJ was used for size and number analysis of GFP-positive aggregates (FIG. 8A). GFP-mHttQ74 DNA was provided by Dr. David C. Rubinsztein of the University of Cambridge, England (Park et al., Neurobiol. Dis. 42: 242-251, 2011). […]
# [7] = system: cerebral cortical nerve cells; test: Zinpyr-1 staining (zinc in the lysosome); assay type: cell-based, ICR mouse; conditions: in combination with 1 μM TPEN, 4 hours
# Experimental: Subsequently, the present inventors measured the zinc concentration in the cells to determine what effect the treatment with the alloferon D-form peptides has on the zinc concentration in the lysosome. To this end, specifically, the cerebral cortical nerve cells were washed once with MEM, and then the MEM was replaced with MEM containing 5 μM zinpyr-1, an intracellular zinc marker (Cayman Chemical, USA, Ex=492 nm, Em=527 nm) and 75 nM lysotracker, and left at 37° C. for 30 minutes. Thereafter, it was washed with fresh MEM and treated with individual reagents (alloferon D-form peptides) according to the experimental conditions. Then, the cells were fixed with 4% PFA (pH 7.4) for 15 minutes, washed twice with PBS (Biowest, France), and photographed with a fluorescent microscope.
# [8] = system: TFEB, cathepsin B, and cathepsin D; test: Western blot of TFEB, cathepsin B and cathepsin D expression; assay type: cell-based, ICR mouse; conditions: 1 μM TPEN with 20 μM alloferon D-form peptide, 4 hours (FIG. 5B)
# Experimental: The cerebral cortex nerve cells of the mice were obtained by extracting the cerebrum from ICR mouse embryos of 13-14 day gestation. 6-7 hemispheres per culture dish were inoculated on 24-well culture dishes or 6-well culture dishes (SPL Life Science, South Korea) coated with 0.01% poly-D-lysine (Sigma, USA) prepared in advance. A cell culture medium, in which Dulbecco's Modified Eagle's Medium (DMEM, Gibco, USA) to which 20 mM glucose and 38 mM sodium bicarbonate were added and which was further supplemented with 5% fetal bovine serum (Hyclone, USA), 5% horse serum (Gibco, USA), and 1% glutamine, was used, and the cell culture medium was incubated in a cell incubator, in which the conditions of 37° C. and 5% CO2 were maintained, and was used in this experiment 10 to 12 days in vitro (DIV) after inoculation.
# The present inventors had observed that the effect of enhancing the autophagic flux by the alloferon D-form peptides is achieved through the activity of cathepsin B and the decrease in the lysosomal pH, and thus, this time, the present inventors investigated through western blot analysis in order to find out whether there is a change in the amount of lysosomal protease expression. […]
# [9] = 100 nM bafilomycin A1 alone, 12 hours
# [10] = treatment alone, without Baf-A1
compound,measurement,setting,value
"CN(C)CCCN1c2ccccc2Sc2ccc(Cl)cc21 [CP, chloropromazine]",effect of the alloferon D-form peptides on autophagic flux,cortical nerve cells [1],not changed
CC(C)[C@@H](NC(=O)CNC(=O)[C@H](N)Cc1c[nH]cn1)C(=O)N[C@H](CO)C(=O)NCC(=O)N[C@H](Cc1c[nH]cn1)C(=O)NCC(=O)N[C@H](CCC(N)=O)C(=O)N[C@H](Cc1c[nH]cn1)C(=O)NCC(=O)N[C@@H](C(=O)N[C@H](Cc1c[nH]cn1)C(=O)NCC(=O)O)C(C)C [alloferon D-form peptides] (H-[dH]G[dV][dS]G[dH]G[dQ][dH]G[dV][dH]G-OH; N-terminus and C-terminus assumed),changes in TNF-α in plasma compared to the control,TNF-α,not observed
same,amount of changes in the body weights of mice,[2],did not change
same,changes in IL-6 in plasma compared to the control,IL-6,not observed
"CCN(CC)CCCC(C)Nc1ccnc2cc(Cl)ccc12 (stereo not shown) [CQ, chloroquine]",number and size of LC3 puncta,H4 cell line (GL-H4),significantly increased
same,lysotracker fluorescence intensity compared to the control,"cortical nerve cells [3]; 50 μM CQ alone, 4 hours",decreased
methyl-beta-cyclodextrin [MβCD],effect of the alloferon D-form peptides on autophagic flux,cortical nerve cells [1],not changed
HGVSGHGQHGVHG [alloferon L-form peptides],degradation / stability in plasma,"[4]; mouse plasma, 10 μM, 37° C., 0-90 minutes",degraded from an early time in plasma
same,half-life,"[4]; mouse, plasma",51.8 min
"CO/C1=C\C(C)=C\[C@@H](C)[C@@H](O)[C@@H](C)C/C(C)=C/C=C/[C@H](OC)[C@@H]([C@@H](C)[C@@H](O)[C@H](C)[C@@]2(O)C[C@@H](O)[C@H](C)[C@@H](C(C)C)O2)OC1=O [Baf-A1, bafilomycin A-1]",β-amyloid protein aggregates,[5]; [9],increased
same,Huntington protein aggregates,[6]; [9],increased
"c1ccc(CN(CCN(Cc2ccccn2)Cc2ccccn2)Cc2ccccn2)nc1 [TPEN, N,N,N′,N′-tetrakis(2-pyridylmethyl)ethylene-diamine]",Zinpyr-1 fluorescence increased by the alloferon D-form peptides,[7],reduced
same,"amounts of TFEB, cathepsin B, and cathepsin D",[8],reduced
[Zn] [zinc],β-amyloid protein aggregates increased by Baf-A1 (fluorescence),"[5]; 100 nM bafilomycin A1 + 2 or 20 μM peptide or 25 μM zinc, 12 hours (FIG. 7A)",decreased
same,β-amyloid aggregates increased by Baf-A1 (western blot),"[5]; 100 nM bafilomycin A1 + peptide or 25 μM zinc, 12 hours (FIG. 7B)",decreased
same,β-amyloid protein aggregates compared to the control group,[5]; [10],no change
same,lysotracker fluorescence intensity decreased by 50 μM CQ,"cortical nerve cells [3]; 20 μM peptide or 25 μM zinc + 50 μM chloroquine, 4 hours (FIG. 3B)",recovered
same,Huntington protein aggregates increased by Baf-A1,"[6]; 100 nM bafilomycin A1 + 20 μM peptide or 25 μM zinc, 12 hours (FIG. 8)",decreased
same,Huntington protein aggregates compared to the control,[6]; [10],no change
